From patent publication US10927125B2, “Substituted cinnolines as inhibitors of KRAS G12C” (Araxes Pharma LLC, priority 2013, dated 2021)

Biological target: T1, KRAS G12C 1-169, his-tagged protein, GDP-loaded (Homo sapiens, UniProt P01116, G12C)
T1 construct: KRAS G12C 1-169, his-tagged protein, GDP-loaded
Assay: Biochemical assay: covalent binding of compounds to KRAS G12C, analysed by mass spectrometry
Conditions: binding measured at 30 min (compounds 247-375)
Protocol: Compounds were tested for activity as follows:
Compounds were diluted to 50× final test concentration in DMSO in 96-well storage plates. […] Reactions were mixed carefully and thoroughly by pipetting up/down with a 200 μl multi-channel pipettor. The plate was sealed well with aluminum plate seal, and stored in drawer at room temperature for 30 min, 2 hour or 24 hrs. 51 μl of 2% formic acid (Fisher cat # A117) in DI H2O was then added to each well followed by mixing with a pipette. The plate was then resealed with aluminum seal and stored on dry ice until analyzed as described below.
The above described assays were analyzed by mass spectrometry according to the following procedure:
The MS instrument is set to positive polarity, 2 GHz resolution, and low mass (1700) mode and allowed to equilibrate for 30 minutes. The instrument is then calibrated, switched to acquisition mode and the appropriate method loaded.
After another 30 minute equilibration time, a blank batch (i.e., buffer) is run to ensure equipment is operating properly. The samples are thawed at 37° C. for 10 minutes, briefly centrifuged, and transfer to the bench top. Wells A1 and H12 are spiked with 1 uL 500 uM internal standard peptide, and the plates centrifuged at 2000×g for 5 minutes. The method is then run and masses of each individual well recorded.
The masses (for which integration data is desired) for each well are pasted into the platemap and exported from the analysis. Masses for the internal standards are exported as well. The data at 50 ppm is extracted for the +19 charge state, and identity of well A1 is assigned using the internal standard spike and integrated. Peak data is exported as a TOF list and the above steps are repeated individually, for the +20, 21, 22, 23, 24, and 25 charge states.

T1 sequence (P01116 1-169 isoform P01116-2 G12C): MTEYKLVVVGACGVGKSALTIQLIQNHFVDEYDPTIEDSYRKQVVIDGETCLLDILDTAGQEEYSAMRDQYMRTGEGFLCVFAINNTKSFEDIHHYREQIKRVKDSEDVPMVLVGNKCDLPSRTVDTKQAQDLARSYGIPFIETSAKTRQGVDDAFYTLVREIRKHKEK

SMILES	Binding %
C=CC(=O)N1CCN(c2nc(NC3CCN(C)C3)nc3c(F)c(-c4cc(O)cc5ccccc45)c(Cl)cc23)CC1 (centres unmarked) [Compound 360, 1-(4-(6-chloro-8-fluoro-7-(3-hydroxynaphthalen-1-yl)-2-(1-methylpyrrolidin-3-ylamino)quinazolin-4-yl)piperazin-1-yl)prop-2-en-1-one]	++++ (++++ indicates binding activity greater than 75%)
C=CC(=O)N1CCN(c2nc(NC3CCN(CC(F)(F)F)C3)nc3c(F)c(-c4c(C)ccc5[nH]ncc45)c(Cl)cc23)CC1 (centres unmarked) [Compound 354, 1-(4-(6-chloro-8-fluoro-7-(5-methyl-1H-indazol-4-yl)-2-(1-(2,2,2-trifluoroethyl)pyrrolidin-3-ylamino)quinazolin-4-yl)piperazin-1-yl)prop-2-en-1-one]	++++ (++++ indicates binding activity greater than 75%)
